# Data reported in patent US8921546B2, “Imidazolothiazole compounds for the treatment of disease” (Ambit Biosciences Corporation, priority 2006, dated 2014).
# Where a name gives a salt, the structure may show the parent alone. Read-outs that look alike come from different tables or passages of the source.
# Columns and labels:
# [1] = biological target: T1, FLT3 (Homo sapiens, UniProt P36888); assay: Binding constant (Kd) measurement, phage-displayed kinase competition binding assay, FLT3
# T1 construct: made in house
# T1 sequence (P36888 27-993): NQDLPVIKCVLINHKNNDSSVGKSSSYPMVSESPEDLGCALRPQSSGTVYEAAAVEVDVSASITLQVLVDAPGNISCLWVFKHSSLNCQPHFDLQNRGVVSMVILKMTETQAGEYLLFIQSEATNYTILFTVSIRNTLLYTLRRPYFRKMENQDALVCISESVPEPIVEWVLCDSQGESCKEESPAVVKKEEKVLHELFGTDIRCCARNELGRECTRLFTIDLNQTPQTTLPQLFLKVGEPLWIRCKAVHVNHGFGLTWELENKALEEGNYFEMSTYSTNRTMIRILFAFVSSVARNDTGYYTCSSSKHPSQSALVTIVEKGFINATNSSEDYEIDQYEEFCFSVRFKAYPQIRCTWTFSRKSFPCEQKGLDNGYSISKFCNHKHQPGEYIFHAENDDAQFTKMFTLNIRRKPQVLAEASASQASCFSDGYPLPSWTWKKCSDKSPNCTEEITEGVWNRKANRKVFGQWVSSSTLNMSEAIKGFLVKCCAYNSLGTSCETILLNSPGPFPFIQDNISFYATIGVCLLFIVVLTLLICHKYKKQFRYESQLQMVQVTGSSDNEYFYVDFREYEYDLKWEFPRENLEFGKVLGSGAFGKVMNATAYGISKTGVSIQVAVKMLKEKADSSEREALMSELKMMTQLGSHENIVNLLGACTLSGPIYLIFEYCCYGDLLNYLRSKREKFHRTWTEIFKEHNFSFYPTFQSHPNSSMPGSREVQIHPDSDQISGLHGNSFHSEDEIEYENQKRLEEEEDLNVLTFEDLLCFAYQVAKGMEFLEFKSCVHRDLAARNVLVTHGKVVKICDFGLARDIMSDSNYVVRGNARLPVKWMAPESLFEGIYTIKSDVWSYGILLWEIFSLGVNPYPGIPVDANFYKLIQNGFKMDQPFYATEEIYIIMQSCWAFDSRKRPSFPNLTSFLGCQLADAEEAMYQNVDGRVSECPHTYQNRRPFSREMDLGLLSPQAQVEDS
# Experimental: (§1) Binding Constant (Kd) Measurements for Small-Molecule-Kinase Interactions
# (§2) By testing across a large class of protein kinases, specificity of the kinase inhibitors provided herein is also determined. The components of the assays include various human kinases expressed as fusions to T7 bacteriophage particles and immobilized ligands that bind to the ATP site of the kinases. […] If the test compound binds the kinase, it competes with the immobilized ligand and prevents binding to the solid support. […] The results are read out by quantitating the amount of fusion protein bound to the solid support, which is accomplished by either traditional phage plaque assays or by quantitative PCR (qPCR) using the phage genome as a template.
# [2] = system: MV4-11 cells; assay: Cellular proliferation assay (MTS), MV4-11; type: cell-based; details: Homo sapiens
# Source text: Cellular Proliferation Assay
# Cancer cell viability and proliferation can be evaluated using a tetrazolium salt reduction cell-based assay. In viable cells, this colorimetric assay can measure mitochondrial reduction of a tetrazolium component (MTS) into an […] formazan product.
# This cell line was used to determine the ability of the compounds provided herein to inhibit Flt3 in intact cells. The RS4-11 cell line, which expresses the wild-type (WT) receptor, is also used as a control to verify the test compound's ability to inhibit the FLT3 receptor containing the ITD mutation.
# MV4-11 cells were plated at 10,000 cells per well in DMEM medium with 0.5% serum. RS4-11 cells were plated at 20,000 cells per well in RPMI with 0.5% serum. […] An aliquot from each well of the compound plate was transferred to the plated cells and then incubated @ 37° C. in 5% CO2 (for 3 days for the MV4-11 cells, 2 days for the RS4-11 cells).
# MTS tetrazolium compound (Owen's reagent) was thawed in a H2O bath. 20 μl of MTS tetrazolium was added to each well of optical plate and the cells were incubated @ 37° C. in 5% CO2 for 2 hours.
# [3] = biological target: T2, KIT (Homo sapiens, UniProt P10721); assay: Binding constant (Kd) measurement, phage-displayed kinase competition binding assay, KIT
# T2 construct: made in house
# Experimental: as §1, §2
# [4] = biological target: T3, CSF1R (Homo sapiens, UniProt P07333); assay: Binding constant (Kd) measurement, phage-displayed kinase competition binding assay, CSF1R
# T3 construct: made in house
# Experimental: as §1, §2
# [5] = read-out: Binding Assay FLT3 Kd
# [6] = MV4-11 cells, 72 hour incubation, MTS, read-out: Cellular Assay MV-proliferation IC50
# [7] = MV4-11, 72 h, read-out: Cellular Assay MV-proliferation IC50 (nM)
# T2 sequence (P10721 26-976): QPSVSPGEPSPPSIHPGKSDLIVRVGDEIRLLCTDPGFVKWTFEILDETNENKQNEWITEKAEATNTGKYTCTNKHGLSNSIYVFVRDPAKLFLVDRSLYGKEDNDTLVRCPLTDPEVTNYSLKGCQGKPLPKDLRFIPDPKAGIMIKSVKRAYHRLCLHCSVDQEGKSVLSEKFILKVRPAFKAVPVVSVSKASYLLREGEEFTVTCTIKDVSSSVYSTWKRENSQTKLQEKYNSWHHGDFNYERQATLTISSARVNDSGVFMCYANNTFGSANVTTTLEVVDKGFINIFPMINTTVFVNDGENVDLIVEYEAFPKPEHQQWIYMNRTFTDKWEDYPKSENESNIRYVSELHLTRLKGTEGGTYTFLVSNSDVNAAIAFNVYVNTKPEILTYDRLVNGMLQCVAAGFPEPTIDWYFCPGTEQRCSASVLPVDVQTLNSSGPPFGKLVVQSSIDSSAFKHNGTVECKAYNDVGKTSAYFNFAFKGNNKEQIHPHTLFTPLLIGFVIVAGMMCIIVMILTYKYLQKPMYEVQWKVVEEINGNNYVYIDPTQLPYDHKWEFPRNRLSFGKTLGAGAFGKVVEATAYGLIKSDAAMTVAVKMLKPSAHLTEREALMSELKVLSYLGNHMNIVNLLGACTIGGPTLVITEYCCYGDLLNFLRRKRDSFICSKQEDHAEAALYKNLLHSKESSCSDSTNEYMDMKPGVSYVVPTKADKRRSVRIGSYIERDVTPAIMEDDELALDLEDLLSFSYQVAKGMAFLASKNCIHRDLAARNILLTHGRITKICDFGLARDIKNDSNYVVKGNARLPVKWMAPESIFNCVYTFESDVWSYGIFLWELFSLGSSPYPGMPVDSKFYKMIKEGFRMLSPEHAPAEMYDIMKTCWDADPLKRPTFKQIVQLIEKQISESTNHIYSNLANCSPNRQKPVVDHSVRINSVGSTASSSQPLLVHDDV
# T3 sequence (P07333 20-972): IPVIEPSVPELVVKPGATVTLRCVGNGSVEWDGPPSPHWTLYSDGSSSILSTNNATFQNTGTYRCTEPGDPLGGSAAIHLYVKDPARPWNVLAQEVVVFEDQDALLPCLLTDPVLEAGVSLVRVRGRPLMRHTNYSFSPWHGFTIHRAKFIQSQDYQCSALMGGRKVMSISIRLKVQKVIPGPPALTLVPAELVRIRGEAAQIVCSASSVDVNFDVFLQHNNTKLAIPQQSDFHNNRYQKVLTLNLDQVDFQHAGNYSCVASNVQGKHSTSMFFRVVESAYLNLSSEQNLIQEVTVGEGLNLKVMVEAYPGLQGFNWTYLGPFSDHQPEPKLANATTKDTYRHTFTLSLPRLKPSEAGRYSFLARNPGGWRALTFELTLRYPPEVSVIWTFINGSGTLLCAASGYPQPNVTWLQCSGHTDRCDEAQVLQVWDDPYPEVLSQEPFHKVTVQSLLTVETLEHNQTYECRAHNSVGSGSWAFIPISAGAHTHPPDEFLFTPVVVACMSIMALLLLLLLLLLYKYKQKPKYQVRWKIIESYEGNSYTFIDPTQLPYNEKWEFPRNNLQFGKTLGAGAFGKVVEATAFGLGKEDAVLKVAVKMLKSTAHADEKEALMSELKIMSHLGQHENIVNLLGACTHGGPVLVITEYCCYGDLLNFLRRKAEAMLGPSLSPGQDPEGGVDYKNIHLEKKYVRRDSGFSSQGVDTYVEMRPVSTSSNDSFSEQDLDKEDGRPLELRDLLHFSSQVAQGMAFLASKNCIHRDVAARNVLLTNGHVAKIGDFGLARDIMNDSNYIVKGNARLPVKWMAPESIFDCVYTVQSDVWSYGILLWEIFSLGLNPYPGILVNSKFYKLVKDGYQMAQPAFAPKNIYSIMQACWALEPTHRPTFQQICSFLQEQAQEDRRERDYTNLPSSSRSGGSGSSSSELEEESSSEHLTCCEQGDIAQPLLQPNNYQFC
SMILES,"Kd [1, 5]","IC50 [2, 6]",Kd [1],"IC50 [2, 7]",Kd [3],Kd [4]
CC(C)(C)c1cc(NC(=O)Nc2ccc(-c3cn4c(n3)sc3ccccc34)cc2)no1 [Compound A1],< 10 nM,< 10 nM,–,–,–,–
"CC(C)(C)c1cc(NC(=O)Nc2ccc(-c3cn4c(n3)sc3cc(F)ccc34)cc2)no1 [Compound A2, 1-(5-tert-butyl-isoxazol-3-yl)-3-[4-(7-fluoro-benzo[d]imidazo[2,1-b]thiazol-2-yl)-phenyl]-urea]",–,< 10 nM,10 to 100 nM,–,–,–
"Cc1ccc2c(c1)sc1nc(-c3ccc(NC(=O)Nc4cc(C(C)(C)C)on4)cc3)cn12 [Compound A3, 1-(5-tert-butyl-isoxazol-3-yl)-3-[4-(7-methyl-benzo[d]imidazo[2,1-b]thiazol-2-yl)-phenyl]-urea]",–,< 10 nM,< 10 nM,–,–,–
"CC(C)(C)c1cc(NC(=O)Nc2ccc(-c3cn4c(n3)sc3cc(O)ccc34)cc2)no1 [Compound A4, 1-(5-tert-butyl-isoxazol-3-yl)-3-[4-(7-hydroxy-benzo[d]imidazo[2,1-b]thiazol-2-yl)-phenyl]-urea]",< 10 nM,< 10 nM,–,–,–,–
"COc1ccc2c(c1)sc1nc(-c3ccc(NC(=O)Nc4cc(C(C)(C)C)on4)cc3)cn12 [Compound A5, 1-(5-tert-butyl-isoxazol-3-yl)-3-[4-(7-methoxy-benzo[d]imidazo[2,1-b]thiazol-2-yl)-phenyl]-urea]",–,< 10 nM,< 10 nM,–,–,–
"CC(C)(C)c1cc(NC(=O)Nc2ccc(-c3cn4c(n3)sc3cc(N5CCOCC5)ccc34)cc2)no1 [Compound A6, 1-(5-tert-Butyl-isoxazol-3-yl)-3-[4-(7-morpholin-4-yl-benzo[d]imidazo[2,1-b]thiazol-2-yl)-phenyl]-urea]",–,< 10 nM,< 10 nM,–,–,–
"CN1CCN(c2ccc3c(c2)sc2nc(-c4ccc(NC(=O)Nc5cc(C(C)(C)C)on5)cc4)cn23)CC1 [Compound A7, 1-(5-tert-butyl-isoxazol-3-yl)-3-{4-[7-(4-methyl-piperazin-1-yl)-benzo[d]imidazo[2,1-b]thiazol-2-yl]-phenyl}-urea]",< 10 nM,< 10 nM,–,–,–,–
"CC(C)(C)c1cc(NC(=O)Nc2ccc(-c3cn4c(n3)sc3cc(OCCN5CCOCC5)ccc34)cc2)no1 [Compound B1, N-(5-tert-Butyl-isoxazol-3-yl)-N′-{4-[7-(2-morpholin-4-yl-ethoxy)imidazo[2,1-b][1,3]benzothiazol-2-yl]phenyl}urea]",–,–,–,< 10 nM,–,–
"CCN(CC)CCOc1ccc2c(c1)sc1nc(-c3ccc(NC(=O)Nc4cc(C(C)(C)C)on4)cc3)cn12 [Compound B2, 1-(5-tert-Butyl-isoxazol-3-yl)-3-{4-[7-(2-diethylamino-ethoxy)-benzo[d]imidazo[2,1-b]thiazol-2-yl]-phenyl}-urea]",–,< 10 nM,< 10 nM,–,< 10 nM,–
"CC(C)(C)c1cc(NC(=O)Nc2ccc(-c3cn4c(n3)sc3cc(OCCN5CCCCC5)ccc34)cc2)no1 [Compound B3, 1-(5-tert-Butyl-isoxazol-3-yl)-3-{4-[7-(2-piperidin-1-yl-ethoxy)-benzo[d]imidazo[2,1-b]thiazol-2-yl]-pheny}-urea hydrochloride]",< 10 nM,< 10 nM,–,–,< 10 nM,–
"CN1CCN(CCOc2ccc3c(c2)sc2nc(-c4ccc(NC(=O)Nc5cc(C(C)(C)C)on5)cc4)cn23)CC1 [Compound B4, 1-(5-tert-Butyl-isoxazol-3-yl)-3-(4-{7-[2-(4-methyl-piperazin-1-yl)-ethoxy]-benzo[d]imidazo[2,1-b]thiazol-2-yl}-phenyl)-urea hydrochloride]",< 10 nM,< 10 nM,–,–,< 10 nM,–
"CC(C)(C)c1cc(NC(=O)Nc2ccc(-c3cn4c(n3)sc3cc(OC(=O)[C@@H]5CCCN5)ccc34)cc2)no1 [Compound B6, (2S)-pyrrolidine-2-carboxylic acid 2-{4-[3-(5-tert-butyl-isoxazol-3-yl)-ureido]-phenyl}-benzo[d]imidazo[2,1-b]thiazol-7-yl ester]",–,< 10 nM,< 10 nM,–,10 to 100 nM,–
"CN1CCN(CCCOc2ccc3c(c2)sc2nc(-c4ccc(NC(=O)Nc5cc(C(C)(C)C)on5)cc4)cn23)CC1 [Compound B9, 1-(5-tert-Butyl-isoxazol-3-yl)-3-(4-{7-[3-(4-methyl-piperazin-1-yl)-propoxy]-benzo[d]imidazo[2,1-b]thiazol-2-yl}-phenyl)-urea]",< 10 nM,< 10 nM,–,–,10 to 100 nM,–
"CCOC(=O)Cc1ccc2c(c1)sc1nc(-c3ccc(NC(=O)Nc4cc(C(C)(C)C)on4)cc3)cn12 [Compound C1, Ethyl 2-{2-[4-({[(5-tert-Butylisoxazol-3-yl)amino]carbonyl}amino)phenyl]imidazo[2,1-b][1,3]benzothiazol-7-yl}acetate]",–,< 10 nM,< 10 nM,–,< 10 nM,–
"CC(C)(C)c1cc(NC(=O)Nc2ccc(-c3cn4c(n3)sc3cc(CC(=O)O)ccc34)cc2)no1 [Compound C2, 2-{2-[4-({[(5-tert-Butylisoxazol-3-yl)amino]carbonyl}amino)phenyl]imidazo[2,1-b][1,3]benzothiazol-7-yl}acetic acid]",–,< 10 nM,< 10 nM,–,< 10 nM,–
"CC(C)(C)c1cc(NC(=O)Nc2ccc(-c3cn4c(n3)sc3cc(CC(=O)NCCN5CCCC5)ccc34)cc2)no1 [Compound C15, 2-(2-{4-[3-(5-tert-butyl-isoxazol-3-yl)-ureido]-phenyl}-benzo[d]imidazo[2,1-b]thiazol-7-yl)-N-(2-pyrrolidin-1-yl-ethyl)-acetamide hydrochloride]",–,< 10 nM,–,–,< 10 nM,10 to 100 nM
"CCN(CC)CCNC(=O)Cc1ccc2c(c1)sc1nc(-c3ccc(NC(=O)Nc4cc(C(C)(C)C)on4)cc3)cn12 [Compound C16, 2-(2-{4-[3-(5-tert-butyl-isoxazol-3-yl)-ureido]-phenyl}-benzo[d]imidazo[2,1-b]thiazol-7-yl)-N-(2-diethylamino-ethyl)-acetamide hydrochloride]",–,< 10 nM,–,–,< 10 nM,10 to 100 nM
"CCN1CCN(C(=O)Cc2ccc3c(c2)sc2nc(-c4ccc(NC(=O)Nc5cc(C(C)(C)C)on5)cc4)cn23)CC1 [Compound C17, 1-(5-tert-butyl-isoxazol-3-yl)-3-(4-{7-[2-(4-ethyl-piperazin-1-yl)-2-oxo-ethyl]benzo[d]imidazo[2,1-b]thiazol-2-yl}-phenyl)-urea hydrochloride]",–,–,–,< 10 nM,< 10 nM,10 to 100 nM
"CC(C)(C)c1cc(NC(=O)Nc2ccc(-c3cn4c(n3)sc3cc(C(=O)NCCN5CCOCC5)ccc34)cc2)no1 [Compound C19, 2-{4-[3-(5-tert-butyl-isoxazol-3-yl)-ureido]-phenyl}imidazo[2,1-b][1,3]benzothiazole-7-carboxylic acid (2-morpholin-4-yl-ethyl)-amide hydrochloride]",–,< 10 nM,–,–,< 10 nM,10 to 100 nM
"CCN1CCN(CCCc2ccc3c(c2)sc2nc(-c4ccc(NC(=O)Nc5cc(C(C)(C)C)on5)cc4)cn23)CC1 [Compound D1, N-(5-tert-Butyl-isoxazol-3-yl)-N′-(4-{7-[3-(4-ethyl-piperazin-1-yl)propyl]imidazo[2,1-b][1,3]benzothiazol-2-yl}phenyl)urea hydrochloride]",–,< 10 nM,–,–,< 10 nM,–
